Laboratory results taken from patent US7910367B2, “Cell culture model and applications thereof” (L'Oreal, priority 2006, dated 2011).
No end group written: not given here.

Legend:
[1] = tested on: nerve cell-keratinocyte-melanocyte (N/K/M) multicellular model (melanogenesis); assay: Melanin amount in nerve cell-keratinocyte-melanocyte (N/K/M) multicellular model under noradrenergic stress; type: cell-based, human; conditions: for amount of melanin, +noradrenalin: 10^−5 M noradrenalin alone (Control) or with CGRP8-37 10^−6 M or Calmiskin 0.03%; for melanin synthesis by melanocytes (in words): multicellular model
Method: The experimental data were analyzed by means of the PRISM® software (graph pad software). The intergroup comparisons were carried out by analysis of variance (ANOVA) using Dunnett's multiple comparison test. The comparisons between two samples were carried out by analysis using the T test. They represent the mean of 4 independent experiments. They are expressed in μg of melanin/ml.

[2] = tested on: CGRP release by nerve cells; assay: Measurement of CGRP release in culture supernatants of the N/K/M model (ELISA); type: cell-based, rat
Method: At the end of the experiment described in Example 3, the supernatants from the wells and from the inserts were collected separately and immediately frozen at −80° C. in order to analyze the CGRP content. The CGRP content was measured in the culture supernatants by means of an ELISA assay (Rat CGRP enzyme Immuno Assay Kit, Spi Bio A05482) according to the protocol recommended by the supplier. The results are expressed in μg of CGRP/ml of medium. The analysis of the results was carried out as described above.

[3] = tested on: nerve cells of the N/K/M multicellular model; assay: Growth of nerve endings through the porous insert (anti-β-tubulin epifluorescence); type: cell-based; conditions: 10^−5 M noradrenalin, 10 days
Method: Using a multicellular model as obtained in Example 1, the cells were cultured in the absence or presence of 10^−5 M noradrenalin, for 10 days.
The N/K/M culture medium was deposited into the culture wells and into the inserts.
The various media were renewed 50/50 every day.
The nerve cells were labelled with an anti-β-tubulin monoclonal antibody (Sigma T8660) and then visualized with goat anti-mouse immunoglobulin antibody-Alexa fluor 488 conjugate (Interchim A-11029).
After thorough washing in PBS, the preparations were observed by epifluorescence (Nikon Diaphot 300 microscope) and photographed.
The photographs were taken below the insert (on the keratinocyte-neuron site).

[4] = 10 days, mean of 4 independent experiments

Molecule	change in amount of melanin synthesized in the cocultures ([1]; 10^−5 M noradrenalin versus control without noradrenalin, 10 days)	amount of melanin, +noradrenalin [1, 4]	melanin synthesis by melanocytes (in words) [1]	CGRP release in the insert (in words) ([2]; insert supernatant, 10^−5 M noradrenalin, with or without 0.03% Calmiskin)	CGRP content, insert ([2]; supernatant of inserts (nerve cells), 10 days, 10^−5 M noradrenalin alone or with 0.03% Calmiskin)	CGRP content, culture well ([2]; supernatant of wells (keratinocyte/melanocyte side), 10 days, 10^−5 M noradrenalin alone or with 0.03% Calmiskin)	density of the cell extensions (nerve endings crossing the insert) [3]	amount of melanin, without noradrenalin ([1]; 10 days, no noradrenalin, CGRP8-37 10^−6 M, Calmiskin 0.03%, mean of 4 independent experiments)	change in amount of melanin in the presence of noradrenalin ([1]; versus 10^−5 M noradrenalin alone, Calmiskin 0.03%, CGRP8-37 10^−6 M, 10 days)
NC[C@H](O)c1ccc(O)c(O)c1 [noradrenalin]	+15%	25.77 ± 0.72 μg of melanin/ml	increase in melanin synthesis	very substantial	493.86 ± 11.57 μg of CGRP/ml of medium	170.48 ± 19.47 μg of CGRP/ml of medium	increased		
CGRP8-37: reference CGRP receptor antagonist (VTHRLAGLLSRSGGVVKNNFVPTNVGSKAF; ends and bridges not checked; UniProt P06881 90-119, looked up, fragment)		21.35 ± 0.91 μg of melanin/ml	considerable decrease in melanin synthesis					19.33 ± 0.48 μg of melanin/ml	−17.2%
